According to ChEMBL document CHEMBL3286226, “Discovery of thienopyrimidine-based FLT3 inhibitors from the structural modification of known IKKβ inhibitors” (Bioorg Med Chem Lett, 2014):

Columns and labels:
RAW264.7 [1] = assay: cells; settings: Mus musculus
Description: (§1) Antiinflammatory activity against mouse RAW264.7 cells assessed as reduction of LPS-induced TNF-alpha production

RAW264.7 [2] = assay: cells; settings: Mus musculus; remark: listed apart in the source
Description: Antiinflammatory activity against mouse RAW264.7 cells assessed as reduction of LPS-induced NO production

[3] = target: T1, Receptor-type tyrosine-protein kinase FLT3 (Homo sapiens, UniProt P36888)
T1 sequence (P36888 whole entry): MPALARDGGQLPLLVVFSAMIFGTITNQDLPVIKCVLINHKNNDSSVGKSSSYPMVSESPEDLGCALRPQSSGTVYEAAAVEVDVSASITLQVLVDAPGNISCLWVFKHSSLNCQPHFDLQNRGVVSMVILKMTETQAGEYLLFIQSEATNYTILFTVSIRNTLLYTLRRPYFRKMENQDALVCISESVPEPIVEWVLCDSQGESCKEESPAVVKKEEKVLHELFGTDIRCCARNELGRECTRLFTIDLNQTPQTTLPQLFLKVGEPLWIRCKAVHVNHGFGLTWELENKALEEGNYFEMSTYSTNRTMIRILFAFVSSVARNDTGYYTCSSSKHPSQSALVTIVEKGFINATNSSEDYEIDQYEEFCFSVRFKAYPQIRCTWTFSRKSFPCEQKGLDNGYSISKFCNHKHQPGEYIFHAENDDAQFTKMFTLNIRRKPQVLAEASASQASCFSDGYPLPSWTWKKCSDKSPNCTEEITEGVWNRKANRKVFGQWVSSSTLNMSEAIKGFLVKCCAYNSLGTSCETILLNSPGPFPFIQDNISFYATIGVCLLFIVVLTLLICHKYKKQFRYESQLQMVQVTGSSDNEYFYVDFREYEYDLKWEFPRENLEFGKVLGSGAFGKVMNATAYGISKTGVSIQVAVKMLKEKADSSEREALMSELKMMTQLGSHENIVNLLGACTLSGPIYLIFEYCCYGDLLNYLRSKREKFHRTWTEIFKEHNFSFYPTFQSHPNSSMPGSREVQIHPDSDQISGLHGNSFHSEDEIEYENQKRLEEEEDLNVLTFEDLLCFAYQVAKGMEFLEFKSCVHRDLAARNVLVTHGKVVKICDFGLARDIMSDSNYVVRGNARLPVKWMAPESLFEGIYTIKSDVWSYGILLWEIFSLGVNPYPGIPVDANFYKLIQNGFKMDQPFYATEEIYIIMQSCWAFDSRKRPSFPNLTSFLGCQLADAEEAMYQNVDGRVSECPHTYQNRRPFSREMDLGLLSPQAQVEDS
Description: Inhibition of FLT3 kinase (unknown origin)

[4] = target: T2, Inhibitor of nuclear factor kappa-B kinase subunit beta (Homo sapiens, UniProt O14920)
T2 sequence (O14920 whole entry): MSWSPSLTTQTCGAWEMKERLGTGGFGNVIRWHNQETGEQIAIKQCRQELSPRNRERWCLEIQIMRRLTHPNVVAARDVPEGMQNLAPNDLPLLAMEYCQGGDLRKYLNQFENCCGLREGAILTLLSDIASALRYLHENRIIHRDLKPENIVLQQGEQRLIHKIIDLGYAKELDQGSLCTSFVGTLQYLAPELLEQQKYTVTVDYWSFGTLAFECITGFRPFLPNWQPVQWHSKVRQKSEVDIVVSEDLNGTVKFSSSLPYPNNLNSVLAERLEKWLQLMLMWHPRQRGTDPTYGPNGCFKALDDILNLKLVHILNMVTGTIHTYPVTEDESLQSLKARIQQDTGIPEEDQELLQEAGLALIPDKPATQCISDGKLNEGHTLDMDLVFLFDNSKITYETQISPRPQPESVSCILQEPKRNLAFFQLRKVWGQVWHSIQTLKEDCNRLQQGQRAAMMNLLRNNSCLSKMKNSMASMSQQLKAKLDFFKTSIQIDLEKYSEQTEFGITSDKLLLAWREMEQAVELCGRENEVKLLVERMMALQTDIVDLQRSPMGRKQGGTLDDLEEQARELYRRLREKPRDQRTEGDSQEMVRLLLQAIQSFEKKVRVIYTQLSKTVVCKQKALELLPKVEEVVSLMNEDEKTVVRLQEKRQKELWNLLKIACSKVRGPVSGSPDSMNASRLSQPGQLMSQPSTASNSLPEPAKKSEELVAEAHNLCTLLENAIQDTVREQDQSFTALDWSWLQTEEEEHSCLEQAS
Description: Inhibition of IKKbeta kinase (unknown origin) by Radioisotope system

RAW264.7 [5] = tested on: RAW264.7
Description: as §1

[6] = target: Tyrosine-protein kinase Lyn (Homo sapiens) (UniProt P07948); assay: Inhibition of human Lyn assessed as residual activity at 10 uM relative to control
[7] = target: Tyrosine-protein kinase BTK (Homo sapiens) (UniProt Q06187); assay: Inhibition of human BTK assessed as residual activity at 10 uM relative to control
[8] = target: Receptor-type tyrosine-protein kinase FLT3 (Homo sapiens) (UniProt P36888); assay: Inhibition of human Flt3 assessed as residual activity at 10 uM relative to control
[9] = target: Inhibitor of nuclear factor kappa-B kinase subunit alpha (Homo sapiens) (UniProt O15111); assay: Inhibition of human IKKalpha assessed as residual activity at 10 uM relative to control
[10] = target: Inhibitor of nuclear factor kappa-B kinase subunit beta (Homo sapiens) (UniProt O14920); assay: Inhibition of human IKKbeta assessed as residual activity at 1 uM relative to control
[11] = target: Tyrosine-protein kinase JAK1 (Homo sapiens) (UniProt P23458); assay: Inhibition of human JAK1 assessed as residual activity at 10 uM relative to control
[12] = target: Mitogen-activated protein kinase 8 (Homo sapiens) (UniProt P45983); assay: Inhibition of human JNK1alpha1 assessed as residual activity at 10 uM relative to control
[13] = target: Mitogen-activated protein kinase 9 (Homo sapiens) (UniProt P45984); assay: Inhibition of human JNK2alpha2 assessed as residual activity at 10 uM relative to control
[14] = target: Tyrosine-protein kinase JAK3 (Homo sapiens) (UniProt P52333); assay: Inhibition of human JAK3 assessed as residual activity at 10 uM relative to control
[15] = target: Tyrosine-protein kinase Lck (Homo sapiens) (UniProt P06239); assay: Inhibition of human Lck assessed as residual activity at 10 uM relative to control
[16] = target: MAP kinase-activated protein kinase 2 (Homo sapiens) (UniProt P49137); assay: Inhibition of human MAPKAP-K2 assessed as residual activity at 10 uM relative to control
[17] = target: Dual specificity mitogen-activated protein kinase kinase 4 (Mus musculus) (UniProt P47809); assay: Inhibition of mouse MKK4 assessed as residual activity at 10 uM relative to control
[18] = target: Dual specificity mitogen-activated protein kinase kinase 6 (Homo sapiens) (UniProt P52564); assay: Inhibition of human MKK6 assessed as residual activity at 10 uM relative to control
[19] = target: Dual specificity mitogen-activated protein kinase kinase 7 (Homo sapiens) (UniProt O14733); assay: Inhibition of human MKK7beta assessed as residual activity at 10 uM relative to control
[20] = target: Ribosomal protein S6 kinase alpha-5 (Homo sapiens) (UniProt O75582); assay: Inhibition of human MSK1 assessed as residual activity at 10 uM relative to control
Homo sapiens = organism: Homo sapiens; assay: Inhibition of human PKA assessed as residual activity at 10 uM relative to control
[21] = target: Rho-associated protein kinase 2 (Homo sapiens) (UniProt O75116); assay: Inhibition of human ROCK-2 assessed as residual activity at 10 uM relative to control
[22] = target: Mitogen-activated protein kinase 14 (Homo sapiens) (UniProt Q16539); assay: Inhibition of human SAPK2alpha assessed as residual activity at 10 uM relative to control
[23] = target: Mitogen-activated protein kinase 11 (Homo sapiens) (UniProt Q15759); assay: Inhibition of human SAPK2beta assessed as residual activity at 10 uM relative to control
[24] = target: Mitogen-activated protein kinase 12 (Homo sapiens) (UniProt P53778); assay: Inhibition of human SAPK3 assessed as residual activity at 10 uM relative to control
[25] = target: Mitogen-activated protein kinase 13 (Homo sapiens) (UniProt O15264); assay: Inhibition of human SAPK4 assessed as residual activity at 10 uM relative to control
[26] = target: Non-receptor tyrosine-protein kinase TYK2 (Homo sapiens) (UniProt P29597); assay: Inhibition of human TYK2 assessed as residual activity at 10 uM relative to control
[27] = target: T2, Inhibitor of nuclear factor kappa-B kinase subunit beta; remark: listed apart in the source
Description: Inhibition of IKKbeta kinase (unknown origin) by Lance ULight system

Sequence of Mitogen-activated protein kinase 12 (Homo sapiens) (P53778 whole entry): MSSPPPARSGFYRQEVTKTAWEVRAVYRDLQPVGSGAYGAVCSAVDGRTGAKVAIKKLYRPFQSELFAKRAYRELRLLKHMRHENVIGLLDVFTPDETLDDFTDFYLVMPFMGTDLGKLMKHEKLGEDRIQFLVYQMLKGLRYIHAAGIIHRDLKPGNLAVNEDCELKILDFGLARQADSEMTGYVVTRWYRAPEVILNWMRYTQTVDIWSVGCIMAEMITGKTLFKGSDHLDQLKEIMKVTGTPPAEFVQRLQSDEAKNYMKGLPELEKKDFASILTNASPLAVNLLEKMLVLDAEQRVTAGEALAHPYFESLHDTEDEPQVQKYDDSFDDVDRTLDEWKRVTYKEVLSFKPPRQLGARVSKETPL
Sequence of Tyrosine-protein kinase JAK3 (Homo sapiens) (P52333 whole entry): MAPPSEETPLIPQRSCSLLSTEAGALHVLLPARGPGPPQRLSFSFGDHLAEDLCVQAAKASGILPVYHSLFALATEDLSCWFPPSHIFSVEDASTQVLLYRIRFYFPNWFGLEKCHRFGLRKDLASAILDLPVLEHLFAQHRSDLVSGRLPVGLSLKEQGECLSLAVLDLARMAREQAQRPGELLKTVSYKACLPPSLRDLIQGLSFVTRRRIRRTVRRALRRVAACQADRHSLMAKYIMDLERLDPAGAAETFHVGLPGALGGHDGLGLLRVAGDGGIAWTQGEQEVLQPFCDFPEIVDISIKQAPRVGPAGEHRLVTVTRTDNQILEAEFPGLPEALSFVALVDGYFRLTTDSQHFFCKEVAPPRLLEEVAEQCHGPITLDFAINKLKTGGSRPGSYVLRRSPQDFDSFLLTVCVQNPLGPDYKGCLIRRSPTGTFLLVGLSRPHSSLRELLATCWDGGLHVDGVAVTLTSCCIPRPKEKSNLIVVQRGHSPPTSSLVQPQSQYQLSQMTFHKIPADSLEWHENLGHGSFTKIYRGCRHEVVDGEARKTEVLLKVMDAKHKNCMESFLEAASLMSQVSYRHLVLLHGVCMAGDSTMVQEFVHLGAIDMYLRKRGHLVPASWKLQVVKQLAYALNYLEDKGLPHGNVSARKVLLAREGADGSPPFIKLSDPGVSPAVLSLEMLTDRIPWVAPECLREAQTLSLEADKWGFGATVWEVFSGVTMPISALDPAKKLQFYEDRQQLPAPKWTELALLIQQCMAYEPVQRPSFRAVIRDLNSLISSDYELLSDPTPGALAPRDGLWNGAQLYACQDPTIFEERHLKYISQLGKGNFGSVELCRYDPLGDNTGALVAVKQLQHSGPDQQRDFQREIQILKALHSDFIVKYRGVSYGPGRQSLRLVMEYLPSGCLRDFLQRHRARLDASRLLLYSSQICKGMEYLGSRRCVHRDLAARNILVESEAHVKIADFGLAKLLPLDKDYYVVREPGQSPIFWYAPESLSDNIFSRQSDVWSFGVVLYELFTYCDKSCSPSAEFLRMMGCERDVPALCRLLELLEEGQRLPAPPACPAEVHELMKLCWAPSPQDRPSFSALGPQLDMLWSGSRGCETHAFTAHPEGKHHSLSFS
Sequence of Dual specificity mitogen-activated protein kinase kinase 6 (Homo sapiens) (P52564 whole entry): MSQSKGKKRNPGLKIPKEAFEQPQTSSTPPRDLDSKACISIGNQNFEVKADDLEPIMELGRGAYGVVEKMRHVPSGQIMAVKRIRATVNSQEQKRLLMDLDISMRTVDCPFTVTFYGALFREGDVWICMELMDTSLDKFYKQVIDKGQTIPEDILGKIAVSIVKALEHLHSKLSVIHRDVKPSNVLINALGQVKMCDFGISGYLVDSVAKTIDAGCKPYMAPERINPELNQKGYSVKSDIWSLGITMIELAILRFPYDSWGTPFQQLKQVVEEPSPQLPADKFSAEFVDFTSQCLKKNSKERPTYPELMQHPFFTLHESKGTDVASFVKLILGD
Sequence of Mitogen-activated protein kinase 13 (Homo sapiens) (O15264 whole entry): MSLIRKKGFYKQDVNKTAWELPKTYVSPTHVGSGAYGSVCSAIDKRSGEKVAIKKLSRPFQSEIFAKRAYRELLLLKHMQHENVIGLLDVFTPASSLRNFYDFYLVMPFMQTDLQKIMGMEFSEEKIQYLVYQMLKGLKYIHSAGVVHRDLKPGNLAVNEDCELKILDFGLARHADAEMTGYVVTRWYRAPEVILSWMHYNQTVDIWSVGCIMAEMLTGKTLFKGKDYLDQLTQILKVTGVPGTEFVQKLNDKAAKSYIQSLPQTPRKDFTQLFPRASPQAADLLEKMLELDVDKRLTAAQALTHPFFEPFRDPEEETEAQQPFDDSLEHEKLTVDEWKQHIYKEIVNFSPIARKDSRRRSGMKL
Sequence of Tyrosine-protein kinase JAK1 (Homo sapiens) (P23458 whole entry): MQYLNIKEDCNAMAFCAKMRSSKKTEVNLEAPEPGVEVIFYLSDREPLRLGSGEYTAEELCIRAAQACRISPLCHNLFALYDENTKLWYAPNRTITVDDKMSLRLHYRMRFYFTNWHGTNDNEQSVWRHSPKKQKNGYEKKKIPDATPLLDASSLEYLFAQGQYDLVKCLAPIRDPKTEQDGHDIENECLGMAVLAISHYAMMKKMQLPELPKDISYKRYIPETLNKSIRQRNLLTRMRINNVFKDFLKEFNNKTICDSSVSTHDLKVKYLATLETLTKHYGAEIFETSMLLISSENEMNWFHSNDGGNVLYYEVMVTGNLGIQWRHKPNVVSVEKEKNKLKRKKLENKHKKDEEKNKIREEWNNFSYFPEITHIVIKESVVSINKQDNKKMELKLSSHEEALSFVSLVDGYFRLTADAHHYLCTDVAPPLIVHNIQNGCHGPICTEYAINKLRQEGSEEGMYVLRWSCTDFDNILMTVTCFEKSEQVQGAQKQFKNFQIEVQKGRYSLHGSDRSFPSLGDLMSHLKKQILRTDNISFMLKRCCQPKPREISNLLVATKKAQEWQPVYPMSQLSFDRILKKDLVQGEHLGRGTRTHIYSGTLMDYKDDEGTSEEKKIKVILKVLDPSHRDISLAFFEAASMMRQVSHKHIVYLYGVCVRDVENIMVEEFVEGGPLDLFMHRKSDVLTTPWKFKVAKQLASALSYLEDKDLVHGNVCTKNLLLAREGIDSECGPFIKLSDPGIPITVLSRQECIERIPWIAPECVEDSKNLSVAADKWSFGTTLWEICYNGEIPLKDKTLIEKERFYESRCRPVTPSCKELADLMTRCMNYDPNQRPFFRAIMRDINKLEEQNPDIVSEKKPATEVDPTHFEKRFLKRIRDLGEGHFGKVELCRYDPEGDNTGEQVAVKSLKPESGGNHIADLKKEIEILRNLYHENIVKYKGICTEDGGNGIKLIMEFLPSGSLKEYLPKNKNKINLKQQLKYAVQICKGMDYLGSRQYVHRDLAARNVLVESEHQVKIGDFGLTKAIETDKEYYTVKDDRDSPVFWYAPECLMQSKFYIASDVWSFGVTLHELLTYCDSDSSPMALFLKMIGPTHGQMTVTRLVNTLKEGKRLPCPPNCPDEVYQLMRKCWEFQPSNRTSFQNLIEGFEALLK
Sequence of Tyrosine-protein kinase Lck (Homo sapiens) (P06239 2-509 limits assumed): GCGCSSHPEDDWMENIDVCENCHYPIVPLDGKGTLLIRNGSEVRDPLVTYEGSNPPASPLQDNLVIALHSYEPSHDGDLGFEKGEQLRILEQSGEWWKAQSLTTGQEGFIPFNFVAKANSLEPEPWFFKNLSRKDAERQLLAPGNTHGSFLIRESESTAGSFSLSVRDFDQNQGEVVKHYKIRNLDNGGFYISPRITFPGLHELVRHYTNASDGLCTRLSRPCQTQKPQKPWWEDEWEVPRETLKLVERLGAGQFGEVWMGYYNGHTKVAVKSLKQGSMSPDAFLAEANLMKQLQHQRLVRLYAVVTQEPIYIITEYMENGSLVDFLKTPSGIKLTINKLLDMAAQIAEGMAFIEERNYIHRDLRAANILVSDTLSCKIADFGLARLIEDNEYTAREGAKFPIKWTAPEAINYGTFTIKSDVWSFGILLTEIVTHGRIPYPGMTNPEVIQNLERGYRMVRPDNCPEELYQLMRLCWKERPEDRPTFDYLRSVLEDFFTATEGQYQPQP
Sequence of Mitogen-activated protein kinase 11 (Homo sapiens) (Q15759 whole entry): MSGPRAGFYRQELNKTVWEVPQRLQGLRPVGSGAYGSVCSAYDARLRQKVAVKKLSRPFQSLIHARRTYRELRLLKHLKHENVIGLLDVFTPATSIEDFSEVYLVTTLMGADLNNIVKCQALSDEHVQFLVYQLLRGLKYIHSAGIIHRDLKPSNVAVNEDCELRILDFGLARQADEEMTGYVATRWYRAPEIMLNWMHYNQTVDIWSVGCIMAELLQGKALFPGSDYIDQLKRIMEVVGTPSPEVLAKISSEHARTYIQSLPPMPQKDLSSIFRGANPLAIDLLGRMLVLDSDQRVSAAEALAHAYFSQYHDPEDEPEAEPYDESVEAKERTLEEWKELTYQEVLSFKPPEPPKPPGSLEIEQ
Sequence of Dual specificity mitogen-activated protein kinase kinase 7 (Homo sapiens) (O14733 whole entry): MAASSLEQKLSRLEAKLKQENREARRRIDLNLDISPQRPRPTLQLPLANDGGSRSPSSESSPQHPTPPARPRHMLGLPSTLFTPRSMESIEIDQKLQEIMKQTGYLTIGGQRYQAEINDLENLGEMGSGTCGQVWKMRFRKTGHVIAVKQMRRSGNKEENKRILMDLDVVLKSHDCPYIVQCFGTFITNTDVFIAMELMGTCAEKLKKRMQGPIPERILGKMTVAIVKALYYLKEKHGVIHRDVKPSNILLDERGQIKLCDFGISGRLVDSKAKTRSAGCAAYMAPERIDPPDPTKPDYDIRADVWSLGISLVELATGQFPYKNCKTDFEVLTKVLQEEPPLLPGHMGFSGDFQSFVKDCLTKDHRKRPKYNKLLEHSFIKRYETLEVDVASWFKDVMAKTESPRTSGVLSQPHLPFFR
Sequence of Mitogen-activated protein kinase 14 (Homo sapiens) (Q16539 whole entry): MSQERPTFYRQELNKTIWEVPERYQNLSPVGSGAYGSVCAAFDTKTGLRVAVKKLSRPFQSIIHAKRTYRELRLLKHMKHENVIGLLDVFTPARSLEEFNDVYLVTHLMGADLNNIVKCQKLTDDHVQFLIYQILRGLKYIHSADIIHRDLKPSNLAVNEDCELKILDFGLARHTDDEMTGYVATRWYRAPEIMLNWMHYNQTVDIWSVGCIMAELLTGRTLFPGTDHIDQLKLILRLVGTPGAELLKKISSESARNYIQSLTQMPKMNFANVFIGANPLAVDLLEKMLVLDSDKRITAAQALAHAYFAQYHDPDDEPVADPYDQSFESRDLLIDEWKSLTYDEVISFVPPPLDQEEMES

COc1cccc(-c2nc(NN3C(=O)C=C(C)C3=O)c3c(-c4cccs4)csc3n2)c1
IC50 (RAW264.7 [1]): 1240 nM
IC50 (RAW264.7 [2]): 3470 nM

CC1=CC(=O)N(Nc2nc(-c3cccs3)nc3scc(-c4ccc(O)cc4)c23)C1=O
IC50 [3]: 750 nM
IC50 [4]: Not Active
IC50 (RAW264.7 [1]): 1320 nM
IC50 (RAW264.7 [2]): 820 nM

CC1=CC(=O)N(Nc2nc(-c3ccco3)nc3scc(-c4cccs4)c23)C1=O
IC50 (RAW264.7 [1]): 3960 nM
IC50 (RAW264.7 [2]): 5250 nM

COc1cccc2nc(-c3cccs3)nc(NN3C(=O)C=C(C)C3=O)c12 [AS-602868]
IC50 (RAW264.7 [1]): 3320 nM
IC50 (RAW264.7 [2]): 4410 nM

O=C1C=CC(=O)N1Nc1ncnc2scc(-c3cccs3)c12
IC50 (RAW264.7 [5]): Not Active
IC50 (RAW264.7 [2]): > 10000 nM

COc1ccc(-c2nc(NN3C(=O)C=C(C)C3=O)c3c(-c4cccs4)csc3n2)cc1
IC50 (RAW264.7 [1]): 1390 nM
IC50 (RAW264.7 [2]): 2790 nM

CC1=CC(=O)N(Nc2nc(-c3cccs3)nc3scc(-c4cccs4)c23)C1=O
IC50 (RAW264.7 [1]): 710 nM
IC50 (RAW264.7 [2]): 2190 nM

CC1=CC(=O)N(Nc2ncnc3scc(-c4cccs4)c23)C1=O
IC50 (RAW264.7 [1]): > 10000 nM
IC50 (RAW264.7 [2]): 2490 nM

CC1=CC(=O)N(Nc2nc(-c3cccs3)nc3scc(-c4ccc(OCCN5CCCCC5)cc4)c23)C1=O.Cl
IC50 [3]: 85 nM
IC50 [4]: Not Active
IC50 (RAW264.7 [1]): 2140 nM
IC50 (RAW264.7 [2]): 1680 nM

CC1=C(C)C(=O)N(Nc2ncnc3scc(-c4cccs4)c23)C1=O
IC50 (RAW264.7 [5]): Not Active
IC50 (RAW264.7 [2]): > 10000 nM

CC1=CC(=O)N(Nc2nc(-c3cccs3)nc3scc(-c4ccccc4)c23)C1=O
Activity [6]: 92%
Activity [7]: 76%
Activity [8]: 8%
Activity [9]: 119%
Activity [10]: 116%
Activity [11]: 103%
Activity [12]: 87%
Activity [13]: 94%
Activity [14]: 121%
Activity [15]: 86%
Activity [16]: 102%
Activity [17]: 113%
Activity [18]: 99%
Activity [19]: 122%
Activity [20]: 96%
Activity (Homo sapiens): 125%
Activity [21]: 99%
Activity [22]: 92%
Activity [23]: 98%
Activity [24]: 109%
Activity [25]: 90%
Activity [26]: 86%
IC50 [3]: 208 nM
IC50 [27]: > 50000 nM
IC50 [4]: Not Active
IC50 (RAW264.7 [1]): 1290 nM
IC50 (RAW264.7 [2]): 750 nM
